# The supplement of paper PMC6045584
# ± gives the standard deviation of the averaged measurements.
# Legend:
# IMATINIB = compound: Cc1ccc(NC(=O)c2ccc(CN3CCN(C)CC3)cc2)cc1Nc1nccc(-c2cccnc2)n1 [IMATINIB]; assay: surviving fraction relative to DMSO-only wells; higher = less growth inhibition; conditions: exposure time: 5 days
# In short: (§1)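 For each tumour cell line, log-phase cells were put into 384-well plates at 250–500 cells per well, then after 24 hours exposed continuously for five days to inhibitors at 0.5, 1, 5, 10, 50, 100, 500 and 1000 nM. Viability was assessed by CellTiter-Glo luminescence, with surviving fraction expressed relative to the median of DMSO-only wells. Lines were screened three times and retained only if replicate Pearson r exceeded 0.7 and median Z' exceeded 0.3.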
# BLEOMYCIN = compound: Cc1c(N)nc([C@H](CC(N)=O)NC[C@H](N)C(N)=O)nc1C(=O)N[C@H](C(=O)N[C@H](C)[C@@H](O)[C@H](C)C(=O)N[C@H](C(=O)NCCc1nc(-c2nc(C(=O)NCCC[S+](C)C)cs2)cs1)[C@@H](C)O)[C@@H](OC1OC(CO)C(O)C(O)C1OC1OC(CO)C(O)C(OC(N)=O)C1O)c1cnc[nH]1 [BLEOMYCIN]; assay: as above; conditions: exposure time: 5 days
# In short: as §1
Test System,surviving fraction (IMATINIB; 0.5 nM),surviving fraction (IMATINIB; 1 nM),surviving fraction (IMATINIB; 5 nM),surviving fraction (IMATINIB; 10 nM),surviving fraction (IMATINIB; 50 nM),surviving fraction (IMATINIB; 100 nM),surviving fraction (IMATINIB; 500 nM),surviving fraction (IMATINIB; 1000 nM),surviving fraction (BLEOMYCIN; 0.5 nM),surviving fraction (BLEOMYCIN; 1 nM),surviving fraction (BLEOMYCIN; 5 nM),surviving fraction (BLEOMYCIN; 10 nM),surviving fraction (BLEOMYCIN; 50 nM),surviving fraction (BLEOMYCIN; 100 nM),surviving fraction (BLEOMYCIN; 500 nM),surviving fraction (BLEOMYCIN; 1000 nM)
SUM149.B1*.S BREAST,1.12 ± 0.041,1.11 ± 0.036,1.15 ± 0.04,1.19 ± 0.035,1.19 ± 0.039,1.15 ± 0.038,1.19 ± 0.051,1.18 ± 0.061,0.884 ± 0.032,0.943 ± 0.024,0.928 ± 0.028,0.883 ± 0.042,0.937 ± 0.066,0.939 ± 0.059,0.55 ± 0.061,0.394 ± 0.096
T47D BREAST,1.08 ± 0.042,1.05 ± 0.016,1.1 ± 0.02,1.05 ± 0.066,1.13 ± 0.027,1.08 ± 0.036,1.1 ± 0.068,1.07 ± 0.056,0.947 ± 0.019,0.915 ± 0.011,0.891 ± 0.02,0.9369 ± 0.0063,0.951 ± 0.02,0.923 ± 0.039,0.693 ± 0.011,0.57 ± 0.03
SUM159 BREAST,,1.11 ± 0.015,1.11 ± 0.024,1.101 ± 0.0045,1.126 ± 0.009,,1.14 ± 0.02,,1.07 ± 0.18,1.02 ± 0.094,1.01 ± 0.082,0.999 ± 0.086,0.948 ± 0.034,0.908 ± 0.031,0.673 ± 0.13,0.246 ± 0.065
HCT15 LARGE INTESTINE,1.13 ± 0.027,1.1 ± 0.035,1.12 ± 0.024,1.12 ± 0.038,1.15 ± 0.08,1.119 ± 0.011,1.18 ± 0.054,1.14 ± 0.046,0.883 ± 0.065,0.887 ± 0.025,0.852 ± 0.011,0.85 ± 0.019,0.805 ± 0.022,0.66 ± 0.044,0.15 ± 0.019,0.104 ± 0.0095
SG32 HEADNECK,,,1.2 ± 0.18,,,1 ± 0.14,1.17 ± 0.052,1.21 ± 0.16,0.921 ± 0.32,0.967 ± 0.23,0.818 ± 0.069,0.825 ± 0.17,0.824 ± 0.071,0.698 ± 0.048,0.593 ± 0.094,0.427 ± 0.05
U2OS BONE,1.06 ± 0.021,1.02 ± 0.033,1.07 ± 0.028,1.05 ± 0.028,1.09 ± 0.026,1.113 ± 0.0058,1.15 ± 0.027,1.15 ± 0.018,0.904 ± 0.028,0.942 ± 0.05,0.933 ± 0.04,0.9 ± 0.039,1.01 ± 0.023,0.8983 ± 0.0064,0.734 ± 0.017,0.617 ± 0.011
OS25HAL BONE,1.08 ± 0.041,1.04 ± 0.035,1.03 ± 0.021,1.06 ± 0.027,1.08 ± 0.013,1.1 ± 0.017,,,0.885 ± 0.027,0.8967 ± 0.0078,0.924 ± 0.026,0.894 ± 0.027,0.936 ± 0.011,0.895 ± 0.058,0.511 ± 0.048,0.286 ± 0.004
C33A CERVIX,0.921 ± 0.058,0.999 ± 0.073,,1.09 ± 0.1,1.15 ± 0.08,,1.05 ± 0.022,1.08 ± 0.045,0.925 ± 0.11,0.98 ± 0.039,0.984 ± 0.13,0.827 ± 0.062,0.435 ± 0.014,0.334 ± 0.02,0.163 ± 0.015,0.124 ± 0.01
SKBR3 BREAST,1.02 ± 0.2,1.09 ± 0.09,,1.11 ± 0.14,1.09 ± 0.081,1.16 ± 0.063,1.24 ± 0.15,1.07 ± 0.15,0.886 ± 0.19,0.721 ± 0.1,0.81 ± 0.16,0.768 ± 0.15,0.872 ± 0.15,0.889 ± 0.099,0.87 ± 0.11,0.783 ± 0.13
RDES SOFT TISSUE,1.37 ± 0.084,1.45 ± 0.048,1.21 ± 0.1,1.22 ± 0.019,1.12 ± 0.1,1.21 ± 0.1,1.24 ± 0.13,1.18 ± 0.082,0.743 ± 0.081,0.794 ± 0.28,0.732 ± 0.089,0.783 ± 0.096,0.985 ± 0.27,0.915 ± 0.09,0.947 ± 0.19,0.582 ± 0.2
22RV1 PROSTATE,1.06 ± 0.068,1.08 ± 0.019,1 ± 0.1,1.05 ± 0.046,,,1.14 ± 0.14,,0.962 ± 0.044,0.979 ± 0.053,0.962 ± 0.029,0.887 ± 0.026,0.922 ± 0.0089,0.886 ± 0.051,0.738 ± 0.032,0.573 ± 0.088
CASKI CERVIX,0.935 ± 0.028,0.9783 ± 0.0081,1.01 ± 0.048,0.962 ± 0.029,1.06 ± 0.042,1.06 ± 0.06,0.919 ± 0.037,1 ± 0.04,0.763 ± 0.063,0.767 ± 0.057,0.7 ± 0.051,0.636 ± 0.088,0.691 ± 0.023,0.612 ± 0.051,0.229 ± 0.018,0.141 ± 0.0035
HU09 BONE,1.05 ± 0.19,1.01 ± 0.034,1.16 ± 0.038,,0.878 ± 0.084,0.89 ± 0.0044,0.554 ± 0.027,0.483 ± 0.026,0.805 ± 0.015,0.923 ± 0.031,0.9 ± 0.084,0.831 ± 0.058,0.883 ± 0.083,0.761 ± 0.037,0.381 ± 0.013,0.246 ± 0.028
MDAMB157 BREAST,,1.01 ± 0.028,1.02 ± 0.018,,,0.939 ± 0.021,0.956 ± 0.018,0.855 ± 0.11,0.89 ± 0.033,0.915 ± 0.045,0.788 ± 0.033,0.863 ± 0.025,0.815 ± 0.047,0.736 ± 0.07,0.476 ± 0.016,0.288 ± 0.056
NCIH441 LUNG,1.175 ± 0.0068,1.14 ± 0.076,,1.14 ± 0.053,1.03 ± 0.12,1.06 ± 0.082,,1.16 ± 0.15,0.956 ± 0.093,1.01 ± 0.05,0.919 ± 0.045,0.887 ± 0.063,0.838 ± 0.066,0.857 ± 0.015,0.762 ± 0.017,0.52 ± 0.028
DU4475 BREAST,1.04 ± 0.18,1.1 ± 0.028,,1.11 ± 0.13,1.09 ± 0.15,,1.21 ± 0.049,1.09 ± 0.1,0.675 ± 0.13,0.792 ± 0.17,0.774 ± 0.2,0.77 ± 0.075,0.742 ± 0.13,0.62 ± 0.1,0.49 ± 0.11,0.378 ± 0.13
HT1080 SOFT TISSUE,1.045 ± 0.01,1.074 ± 0.0023,1.1 ± 0.048,1.07 ± 0.021,1.04 ± 0.036,1.03 ± 0.033,,,1.001 ± 0.0036,0.965 ± 0.044,0.935 ± 0.018,0.886 ± 0.024,0.798 ± 0.071,0.7 ± 0.046,0.402 ± 0.0042,0.324 ± 0.012
MDAMB231 BREAST,0.9973 ± 0.0088,1.03 ± 0.04,1.01 ± 0.039,1.03 ± 0.022,1 ± 0.058,1.01 ± 0.027,0.968 ± 0.042,0.96 ± 0.024,0.961 ± 0.017,0.958 ± 0.018,0.978 ± 0.014,0.935 ± 0.019,0.887 ± 0.028,0.845 ± 0.021,0.642 ± 0.029,0.504 ± 0.01
